Experimental data from patent US20060069132A1, “Azolecarboxamide herbicides” (priority 2004, published 2006).
Where two headings read alike, the source gives them in different places.

Assays:
giant foxtail = experiment: Test A pre-/postemergence herbicide test; type: in vivo, Setaria faberi; conditions: for pest or weed control at 500 g/ha / pest or weed control at 2000 g/ha: Setaria faberi, 240 h
In short: (§1)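 Seeds sown in sandy loam received a preemergence directed soil spray of compound in non-phytotoxic solvent with surfactant; postemergence plants (2–10 cm, one- to two-leaf stage) were sprayed to runoff at the same time. After ~10 days in greenhouse, injury was rated visually versus untreated controls (0 = no effect, 100 = complete control).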

velvetleaf [1] = experiment: Test A pre-/postemergence herbicide test; type: in vivo, Abutilon theophrasti; conditions: for pest or weed control at 500 g/ha / pest or weed control at 2000 g/ha: Abutilon theophrasti, 240 h
In short: as §1

rice = experiment: Test B pre-/postemergence herbicide test; type: in vivo, Oryza sativa
In short: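 Formulation: non-phytotoxic solvent mix with surfactant. Timing: preemergence on seed and postemergence on 2–18 cm plants, applied concurrently. Readout after 13–15 d greenhouse: visual 0–100 control rating against controls.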

cocklebur = experiment: Test C pre-/postemergence herbicide test; type: in vivo, Xanthium strumarium
In short: (§2)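 Seeds were planted and sprayed preemergence with test chemicals in a non-phytotoxic solvent mixture containing surfactant; postemergence treatments went onto plants 2 to 18 cm tall (1- to 4-leaf stage). After 12 to 14 days in a greenhouse, injury was rated visually against untreated controls on a 0–100 scale.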

large crabgrass = experiment: Test C pre-/postemergence herbicide test; type: in vivo, Digitaria sanguinalis
In short: as §2

pigweed = experiment: Test C pre-/postemergence herbicide test; type: in vivo, Amaranthus retroflexus
In short: as §2

[2] = test system: common (oilseed) sunflower; experiment: Test C pre-/postemergence herbicide test; type: in vivo, Helianthus annuus
In short: as §2

velvetleaf [3] = experiment: Test C pre-/postemergence herbicide test; type: in vivo, Abutilon theophrasti
In short: as §2

[4] = Postemergence, 500 g ai/ha, 0 to 100 scale, 0 no effect, 100 complete control
[5] = Postemergence, 2000 g ai/ha, 0 to 100 scale, 0 no effect, 100 complete control
[6] = Preemergence, 2000 g ai/ha, visual rating, 0 to 100 scale (0 no effect, 100 complete control)
[7] = preemergence, 500 g ai/ha, visual injury, 0 to 100 scale (0 no effect, 100 complete control)
[8] = 62 g ai/ha, preemergence, scale 0 to 100
[9] = 125 g ai/ha, scale 0 (no effect) to 100 (complete control), visual, 12 to 14 days, preemergence
[10] = 250 g ai/ha, scale 0-100, preemergence
[11] = Postemergence, 500 g ai/ha, scale 0 to 100
[12] = Postemergence, 250 g ai/ha, scale 0 to 100, 0 no effect, 100 complete control
[13] = postemergence, 125 g ai/ha, scale 0 to 100
[14] = postemergence, 62 g ai/ha, scale 0 to 100
[15] = 500 g ai/ha, scale 0 to 100 (0 no effect, 100 complete control), visual, 12 to 14 days, preemergence

In the case of `C=CCNC(=O)c1cccc(NC(=O)c2cc(C(C)(C)C)nn2C)n1` [Compound 318], the “Foxtail, Giant plant response rating” value (giant foxtail; [4]) was 50, the “Plant response rating, Foxtail, Giant” value (giant foxtail; [5]) was 90 and the “Foxtail, Giant plant response rating” value (giant foxtail; [6]) was 85. For the same compound, the “Foxtail, Giant plant response rating” value (giant foxtail; [7]) was 40, the “Velvetleaf plant response rating” value (velvetleaf [1]; [4]) was 40 and the “Plant response rating, Velvetleaf” value (velvetleaf [1]; [5]) was 50. The “Velvetleaf plant response rating” value (velvetleaf [1]; [6]) was 80, the “Velvetleaf plant response rating” value (velvetleaf [1]; [7]) was 30 and the “Plant response rating (0 to 100 scale), Rice” value (rice; 125 g ai/ha, 0 is no effect, 100 is complete control, preemergence) was 0. For the same compound, the “Plant response rating, Rice” value (rice; 500 g ai/ha, visual rating, 0 = no effect, 100 = complete control, preemergence) was 50, the “Plant response rating, Cocklebur” value (cocklebur; [8]) was 0 and the “Plant response rating, Cocklebur” value (cocklebur; [9]) was 0. For the same compound, the “Plant response rating, Cocklebur” value (cocklebur; [10]) was 0, the “Cocklebur plant response rating” value (cocklebur; [11]) was 100 and the “Plant response rating, Cocklebur” value (cocklebur; [12]) was 10. For the same compound, the “Cocklebur plant response rating” value (cocklebur; Preemergence, 500 g ai/ha, scale 0 to 100, 0 no effect, 100 complete control) was 0, the “Plant response rating, Cocklebur” value (cocklebur; [13]) was 5 and the “Plant response rating, Cocklebur” value (cocklebur; [14]) was 0. For the same compound, the “Plant response rating, Crabgrass, Large” value (large crabgrass; [9]) was 50, the “Plant response rating, Crabgrass, Large” value (large crabgrass; [10]) was 60 and the “Plant response rating, Crabgrass, Large” value (large crabgrass; [15]) was 100. For the same compound, the “Crabgrass, Large plant response rating” value (large crabgrass; [11]) was 50, the “Plant response rating, Crabgrass, Large” value (large crabgrass; [12]) was 30 and the “Plant response rating, Crabgrass, Large” value (large crabgrass; [13]) was 0. The “Plant response rating, Crabgrass, Large” value (large crabgrass; [14]) was 0, the “Plant response rating, Pigweed” value (pigweed; [8]) was 80 and the “Plant response rating, Pigweed” value (pigweed; [9]) was 95. For the same compound, the “Plant response rating, Pigweed” value (pigweed; [10]) was 100, the “Plant response rating, Pigweed” value (pigweed; [15]) was 100 and the “Pigweed plant response rating” value (pigweed; [11]) was 100. The “Plant response rating, Pigweed” value (pigweed; [12]) was 100, the “Plant response rating, Pigweed” value (pigweed; [13]) was 100 and the “Plant response rating, Pigweed” value (pigweed; [14]) was 100. The “Plant response rating, Sunflower” value [2, 8] was 0, the “Plant response rating, Sunflower” value [2, 10] was 0 and the “Plant response rating, Sunflower” value [2, 15] was 0. For the same compound, the “Plant response rating, Velvetleaf” value (velvetleaf [3]; [8]) was 60, the “Plant response rating, Velvetleaf” value (velvetleaf [3]; [10]) was 100 and the “Plant response rating, Velvetleaf” value (velvetleaf [3]; [15]) was 100. For the same compound, the “Velvetleaf plant response rating” value (velvetleaf [3]; [11]) was 60, the “Plant response rating, Velvetleaf” value (velvetleaf [3]; [12]) was 40 and the “Plant response rating, Velvetleaf” value (velvetleaf [3]; [13]) was 35. For the same compound, the “Plant response rating, Velvetleaf” value (velvetleaf [3]; [14]) was 0.

With `CCN1N=C(C(C)(C)C)CC1C(=O)Nc1cc(C(=O)N(C)C)ccc1F` (centres unmarked) [Compound 268, N-[5-[(dimethylamino)carbonyl]-2-fluorophenyl]-3-(1,1-dimethylethyl)-1-ethyl-4,5-dihydro-1H-pyrazole-5-carboxamide] the pest or weed control at 500 g/ha (giant foxtail; post-emergence, Postemergence, 500 g ai/ha, 0 to 100 scale, 0 no effect, 100 complete control, read-out: Foxtail, Giant plant response rating) was 55%, the pest or weed control at 2000 g/ha (giant foxtail; post-emergence, Postemergence, 2000 g ai/ha, 0 to 100 scale, 0 no effect, 100 complete control, read-out: Plant response rating, Foxtail, Giant) was 80% and the pest or weed control at 2000 g/ha (giant foxtail; pre-emergence, Preemergence, 2000 g ai/ha, visual rating, 0 to 100 scale (0 no effect, 100 complete control), read-out: Foxtail, Giant plant response rating) was 100%. For the same compound, the pest or weed control at 500 g/ha (giant foxtail; pre-emergence, preemergence, 500 g ai/ha, visual injury, 0 to 100 scale (0 no effect, 100 complete control), read-out: Foxtail, Giant plant response rating) was 100%, the pest or weed control at 500 g/ha (velvetleaf [1]; post-emergence, Postemergence, 500 g ai/ha, 0 to 100 scale, 0 no effect, 100 complete control, read-out: Velvetleaf plant response rating) was 45% and the pest or weed control at 2000 g/ha (velvetleaf [1]; post-emergence, Postemergence, 2000 g ai/ha, 0 to 100 scale, 0 no effect, 100 complete control, read-out: Plant response rating, Velvetleaf) was 45%. It also gave a pest or weed control at 2000 g/ha (velvetleaf [1]; pre-emergence, Preemergence, 2000 g ai/ha, visual rating, 0 to 100 scale (0 no effect, 100 complete control), read-out: Velvetleaf plant response rating) of 100%, a pest or weed control at 500 g/ha (velvetleaf [1]; pre-emergence, preemergence, 500 g ai/ha, visual injury, 0 to 100 scale (0 no effect, 100 complete control), read-out: Velvetleaf plant response rating) of 95% and a plant injury at 125 g/ha (rice; Oryza sativa, pre-emergence, 336 h, 125 g ai/ha, 0 = no effect, 100 = complete control, read-out: Rice plant response rating (0 to 100 scale)) of 90%. The plant injury at 500 g/ha (rice; Oryza sativa, pre-emergence, 336 h, 500 g ai/ha, visual rating, 0 = no effect, 100 = complete control, read-out: Plant response rating, Rice) was 90%, the pest or weed control at 62 g/ha (cocklebur; Xanthium strumarium, pre-emergence, 312 h, 62 g ai/ha, preemergence, scale 0 to 100, read-out: Plant response rating, Cocklebur) was 10% and the pest or weed control at 125 g/ha (cocklebur; Xanthium strumarium, pre-emergence, 312 h, 125 g ai/ha, scale 0 (no effect) to 100 (complete control), visual, 12 to 14 days, read-out: Plant response rating, Cocklebur) was 60%. The pest or weed control at 250 g/ha (cocklebur; Xanthium strumarium, pre-emergence, 312 h, 250 g ai/ha, scale 0-100, read-out: Plant response rating, Cocklebur) was 70%, the pest or weed control at 500 g/ha (cocklebur; Xanthium strumarium, pre-emergence, 312 h, Preemergence, 500 g ai/ha, scale 0 to 100, 0 no effect, 100 complete control, read-out: Cocklebur plant response rating) was 85% and the pest or weed control at 62 g/ha (large crabgrass; Digitaria sanguinalis, pre-emergence, 312 h, 62 g ai/ha, preemergence, scale 0 to 100, read-out: Plant response rating, Crabgrass, Large) was 90%. The pest or weed control at 125 g/ha (large crabgrass; Digitaria sanguinalis, pre-emergence, 312 h, 125 g ai/ha, scale 0 (no effect) to 100 (complete control), visual, 12 to 14 days, read-out: Plant response rating, Crabgrass, Large) was 95%, the pest or weed control at 250 g/ha (large crabgrass; Digitaria sanguinalis, pre-emergence, 312 h, 250 g ai/ha, scale 0-100, read-out: Plant response rating, Crabgrass, Large) was 100% and the pest or weed control at 500 g/ha (large crabgrass; Digitaria sanguinalis, pre-emergence, 312 h, 500 g ai/ha, scale 0 to 100 (0 no effect, 100 complete control), visual, 12 to 14 days, read-out: Plant response rating, Crabgrass, Large) was 100%. For the same compound, the pest or weed control at 62 g/ha (pigweed; Amaranthus retroflexus, pre-emergence, 62 g ai/ha, preemergence, scale 0 to 100, read-out: Plant response rating, Pigweed) was 100%, the pest or weed control at 125 g/ha (pigweed; Amaranthus retroflexus, pre-emergence, 125 g ai/ha, scale 0 (no effect) to 100 (complete control), visual, 12 to 14 days, read-out: Plant response rating, Pigweed) was 100% and the pest or weed control at 250 g/ha (pigweed; Amaranthus retroflexus, pre-emergence, 250 g ai/ha, scale 0-100, read-out: Plant response rating, Pigweed) was 100%. It also gave a pest or weed control at 500 g/ha (pigweed; Amaranthus retroflexus, pre-emergence, 500 g ai/ha, scale 0 to 100 (0 no effect, 100 complete control), visual, 12 to 14 days, read-out: Plant response rating, Pigweed) of 100%, a pest or weed control at 62 g/ha ([2]; Helianthus annuus, pre-emergence, 62 g ai/ha, preemergence, scale 0 to 100, read-out: Plant response rating, Sunflower) of 0% and a pest or weed control at 250 g/ha ([2]; Helianthus annuus, pre-emergence, 250 g ai/ha, scale 0-100, read-out: Plant response rating, Sunflower) of 60%. It also gave a pest or weed control at 500 g/ha ([2]; Helianthus annuus, pre-emergence, 500 g ai/ha, scale 0 to 100 (0 no effect, 100 complete control), visual, 12 to 14 days, read-out: Plant response rating, Sunflower) of 90%, a pest or weed control at 62 g/ha (velvetleaf [3]; Abutilon theophrasti, pre-emergence, 62 g ai/ha, preemergence, scale 0 to 100, read-out: Plant response rating, Velvetleaf) of 60% and a pest or weed control at 250 g/ha (velvetleaf [3]; Abutilon theophrasti, pre-emergence, 250 g ai/ha, scale 0-100, read-out: Plant response rating, Velvetleaf) of 100%. The pest or weed control at 500 g/ha (velvetleaf [3]; Abutilon theophrasti, pre-emergence, 500 g ai/ha, scale 0 to 100 (0 no effect, 100 complete control), visual, 12 to 14 days, read-out: Plant response rating, Velvetleaf) was 100%.
